According to paper PMC10893631, “Receptor-based pharmacophore modeling, molecular docking, synthesis and biological evaluation of novel VEGFR-2, FGFR-1, and BRAF multi-kinase inhibitors” (BMC Chemistry, 2024):

How the values were obtained:
Test in all cases: NCI SRB growth inhibition (single dose 10 µM / five-dose)
Format in all cases: cell-based, human
786–0 = conditions: Homo sapiens; for inhibition at 10 µM: 786–0 (Renal cancer), read-out: GI%
Procedure, shortened: (§1)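 Percent growth relative to untreated control and time-zero cell mass, determined by SRB. Five drug levels (10-fold or half-log steps) plus control; time-zero plates fixed 24 h after seeding.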

HCT-116 = conditions: Homo sapiens, HCT-116; for inhibition at 10 µM: read-out: GI%
Procedure, shortened: as §1

IGROV1 = conditions: Homo sapiens, IGROV-1; for inhibition at 10 µM: IGROV1 (Ovarian cancer), read-out: GI%; for GI50: IGROV1, Ovarian cancer, five-dose
Procedure, shortened: as §1

K-562 = conditions: Homo sapiens, K562; for inhibition at 10 µM: K-562 (Leukemia), read-out: GI%; for GI50: K-562, Leukemia, five-dose
Procedure, shortened: as §1

M14 = conditions: Homo sapiens; for inhibition at 10 µM: M14 (Melanoma), read-out: GI%; for GI50: M14, Melanoma, five-dose
Procedure, shortened: as §1

MALME-3 M = conditions: Homo sapiens; for inhibition at 10 µM: MALME-3 M (Melanoma), read-out: GI%; for GI50: MALME-3 M, Melanoma, five-dose
Procedure, shortened: as §1

MDA-MB-435 = conditions: Homo sapiens; for inhibition at 10 µM: MDA-MB-435 (Melanoma), read-out: GI%; for GI50: MDA-MB-435, Melanoma, five-dose
Procedure, shortened: as §1

NCI-H226 = conditions: Homo sapiens; for inhibition at 10 µM: NCI-H226 (Non-small cell lung cancer), read-out: GI%; for GI50: NCI-H226, Non-small cell lung cancer, five-dose
Procedure, shortened: as §1

NCI/ADR-RES = conditions: Homo sapiens; for inhibition at 10 µM: NCI/ADR-RES (Ovarian cancer), read-out: GI%; for GI50: NCI/ADR-RES, Ovarian cancer, five-dose
Procedure, shortened: as §1

OVCAR-3 = conditions: Homo sapiens; for inhibition at 10 µM: OVCAR-3 (Ovarian cancer), read-out: GI%; for GI50: OVCAR-3, Ovarian cancer, five-dose
Procedure, shortened: as §1

OVCAR-4 = conditions: Homo sapiens; for inhibition at 10 µM: OVCAR-4 (Ovarian cancer), read-out: GI%; for GI50: OVCAR-4, Ovarian cancer, five-dose
Procedure, shortened: as §1

RPMI-8226 = conditions: Homo sapiens; for inhibition at 10 µM: RPMI-8226 (Leukemia), read-out: GI%; for GI50: RPMI-8226, Leukemia, five-dose
Procedure, shortened: as §1

RXF 393 = conditions: Homo sapiens; for inhibition at 10 µM: RXF 393 (Renal cancer), read-out: GI%; for GI50: RXF 393, Renal cancer, five-dose
Procedure, shortened: as §1

SF-295 = conditions: Homo sapiens; for inhibition at 10 µM: SF-295 (CNS cancer), read-out: GI%; for GI50: SF-295, CNS cancer, five-dose
Procedure, shortened: as §1

SF-539 = conditions: Homo sapiens; for inhibition at 10 µM: SF-539 (CNS cancer), read-out: GI%; for GI50: SF-539, CNS cancer, five-dose
Procedure, shortened: as §1

SK-MEL-28 = conditions: Homo sapiens; for inhibition at 10 µM: SK-MEL-28 (Melanoma), read-out: GI%; for GI50: SK-MEL-28, Melanoma, five-dose
Procedure, shortened: as §1

SK-MEL-5 = conditions: Homo sapiens; for inhibition at 10 µM: SK-MEL-5 (Melanoma), read-out: GI%; for GI50: SK-MEL-5, Melanoma, five-dose
Procedure, shortened: as §1

SK-OV-3 = conditions: Homo sapiens; for inhibition at 10 µM: SK-OV-3 (Ovarian cancer), read-out: GI%; for GI50: SK-OV-3, Ovarian cancer, five-dose
Procedure, shortened: as §1

SW-620 = conditions: Homo sapiens; for inhibition at 10 µM: SW-620 (Colon cancer), read-out: GI%; for GI50: SW-620, Colon cancer, five-dose
Procedure, shortened: as §1

T-47D = conditions: Homo sapiens, T47D; for inhibition at 10 µM: T-47D (Breast cancer), read-out: GI%; for GI50: T-47D, Breast cancer, five-dose
Procedure, shortened: as §1

TK-10 = conditions: Homo sapiens; for inhibition at 10 µM: TK-10 (Renal cancer), read-out: GI%; for GI50: TK-10, Renal cancer, five-dose
Procedure, shortened: as §1

UACC-62 = conditions: Homo sapiens; for inhibition at 10 µM: UACC-62 (Melanoma), read-out: GI%; for GI50: UACC-62, Melanoma, five-dose
Procedure, shortened: as §1

UO-31 = conditions: Homo sapiens; for inhibition at 10 µM: UO-31 (Renal cancer), read-out: GI%; for GI50: UO-31, Renal cancer, five-dose
Procedure, shortened: as §1

In the case of `COc1ccc(-c2nc3cc(C(=O)NN=Cc4ccccc4O)ccc3[nH]2)cc1` [8h, N'-(2-Hydroxybenzylidene)-2-(4-methoxyphenyl)-1H-benzo[d]imidazole-5-carbohydrazide], the inhibition at 10 µM (786–0) was > 100%, the GI50 (HCT-116) was 4930 nM and the inhibition at 10 µM (HCT-116) was > 100%. The inhibition at 10 µM (IGROV1) was > 100%, the GI50 (IGROV1) was 2260 nM and the inhibition at 10 µM (K-562) was 99.5%. The GI50 (K-562) was 1360 nM, the inhibition at 10 µM (M14) was > 100% and the GI50 (M14) was 3650 nM. For the same compound, the inhibition at 10 µM (MALME-3 M) was > 100%, the GI50 (MALME-3 M) was 1770 nM and the inhibition at 10 µM (MDA-MB-435) was > 100%. For the same compound, the GI50 (MDA-MB-435) was 1950 nM, the inhibition at 10 µM (NCI-H226) was > 100% and the GI50 (NCI-H226) was 6940 nM. The inhibition at 10 µM (NCI/ADR-RES) was 63.2%, the GI50 (NCI/ADR-RES) was 6740 nM and the inhibition at 10 µM (OVCAR-3) was > 100%. The GI50 (OVCAR-3) was 1980 nM, the inhibition at 10 µM (OVCAR-4) was > 100% and the GI50 (OVCAR-4) was 2240 nM. The inhibition at 10 µM (RPMI-8226) was 96.7%, the GI50 (RPMI-8226) was 1390 nM and the inhibition at 10 µM (RXF 393) was > 100%. The GI50 (RXF 393) was 6290 nM, the inhibition at 10 µM (SF-295) was > 100% and the GI50 (SF-295) was 1260 nM. For the same compound, the inhibition at 10 µM (SF-539) was > 100%, the GI50 (SF-539) was 2050 nM and the inhibition at 10 µM (SK-MEL-28) was > 100%. The GI50 (SK-MEL-28) was 2960 nM, the inhibition at 10 µM (SK-MEL-5) was > 100% and the GI50 (SK-MEL-5) was 1730 nM. For the same compound, the inhibition at 10 µM (SK-OV-3) was > 100%, the GI50 (SK-OV-3) was 7300 nM and the inhibition at 10 µM (SW-620) was > 100%. The GI50 (SW-620) was 1750 nM, the inhibition at 10 µM (T-47D) was > 100% and the GI50 (T-47D) was 2600 nM. For the same compound, the inhibition at 10 µM (TK-10) was > 100%, the GI50 (TK-10) was 6190 nM and the inhibition at 10 µM (UACC-62) was > 100%. For the same compound, the GI50 (UACC-62) was 2530 nM, the inhibition at 10 µM (UO-31) was > 100% and the GI50 (UO-31) was 1700 nM.

For `COc1ccc(-c2nc3cc(C(=O)NN=Cc4cc(OC)c(OC)c(OC)c4)ccc3[nH]2)cc1` [8n, 2-(4-Methoxyphenyl)-N'-(3,4,5-trimethoxybenzylidene)-1H-benzo[d]imidazole-5-carbohydrazide], the inhibition at 10 µM (786–0) was < 5%, the inhibition at 10 µM (HCT-116) was 23.4% and the inhibition at 10 µM (IGROV1) was < 5%. For the same compound, the inhibition at 10 µM (K-562) was 23.7%, the inhibition at 10 µM (M14) was 40.3% and the inhibition at 10 µM (MALME-3 M) was 76.8%. The inhibition at 10 µM (MDA-MB-435) was 25%, the inhibition at 10 µM (NCI-H226) was 22.3% and the inhibition at 10 µM (NCI/ADR-RES) was < 5%. For the same compound, the inhibition at 10 µM (OVCAR-3) was < 5%, the inhibition at 10 µM (OVCAR-4) was < 5% and the inhibition at 10 µM (RPMI-8226) was 44.5%. For the same compound, the inhibition at 10 µM (RXF 393) was 20.1%, the inhibition at 10 µM (SF-295) was 29.8% and the inhibition at 10 µM (SF-539) was 24.4%. For the same compound, the inhibition at 10 µM (SK-MEL-28) was 31.4%, the inhibition at 10 µM (SK-MEL-5) was 42.6% and the inhibition at 10 µM (SK-OV-3) was 20.2%. For the same compound, the inhibition at 10 µM (SW-620) was < 5%, the inhibition at 10 µM (T-47D) was 38.1% and the inhibition at 10 µM (TK-10) was < 5%. For the same compound, the inhibition at 10 µM (UACC-62) was 68.5% and the inhibition at 10 µM (UO-31) was 21.8%.

In the case of `COc1cccc(C=NNC(=O)c2ccc3[nH]c(-c4ccc(Cl)cc4)nc3c2)c1O` [8r, 2-(4-Chlorophenyl)-N'-(2-hydroxy-3-methoxybenzylidene)-1H-benzo[d]imidazole-5-carbohydrazide], the inhibition at 10 µM (786–0) was > 100%, the GI50 (786–0; 786–0, Renal cancer, five-dose) was 1490 nM and the GI50 (HCT-116) was 1190 nM. For the same compound, the inhibition at 10 µM (HCT-116) was > 100%, the inhibition at 10 µM (IGROV1) was > 100% and the GI50 (IGROV1) was 1250 nM. For the same compound, the inhibition at 10 µM (K-562) was > 100%, the GI50 (K-562) was 490 nM and the inhibition at 10 µM (M14) was > 100%. For the same compound, the GI50 (M14) was 2070 nM, the inhibition at 10 µM (MALME-3 M) was > 100% and the GI50 (MALME-3 M) was 1360 nM. The inhibition at 10 µM (MDA-MB-435) was > 100%, the GI50 (MDA-MB-435) was 1810 nM and the inhibition at 10 µM (NCI-H226) was > 100%. The GI50 (NCI-H226) was 1650 nM, the inhibition at 10 µM (NCI/ADR-RES) was 49.3% and the GI50 (NCI/ADR-RES) was > 100000 nM. For the same compound, the inhibition at 10 µM (OVCAR-3) was > 100%, the GI50 (OVCAR-3) was 560 nM and the inhibition at 10 µM (OVCAR-4) was > 100%. For the same compound, the GI50 (OVCAR-4) was 1410 nM, the inhibition at 10 µM (RPMI-8226) was > 100% and the GI50 (RPMI-8226) was 2220 nM. The inhibition at 10 µM (RXF 393) was > 100%, the GI50 (RXF 393) was 1410 nM and the inhibition at 10 µM (SF-295) was > 100%. For the same compound, the GI50 (SF-295) was 2200 nM, the inhibition at 10 µM (SF-539) was > 100% and the GI50 (SF-539) was 1070 nM. For the same compound, the inhibition at 10 µM (SK-MEL-28) was > 100%, the GI50 (SK-MEL-28) was 1620 nM and the inhibition at 10 µM (SK-MEL-5) was > 100%. The GI50 (SK-MEL-5) was 1340 nM, the inhibition at 10 µM (SK-OV-3) was > 100% and the GI50 (SK-OV-3) was 2080 nM. For the same compound, the inhibition at 10 µM (SW-620) was > 100%, the GI50 (SW-620) was 1320 nM and the inhibition at 10 µM (T-47D) was > 100%. The GI50 (T-47D) was 600 nM, the inhibition at 10 µM (TK-10) was > 100% and the GI50 (TK-10) was 6460 nM. For the same compound, the inhibition at 10 µM (UACC-62) was > 100%, the GI50 (UACC-62) was 1230 nM and the inhibition at 10 µM (UO-31) was > 100%. For the same compound, the GI50 (UO-31) was 2070 nM.

Work on `COc1ccc(C=NNC(=O)c2ccc3[nH]c(-c4ccccc4)nc3c2)cc1O` [8e, N'-(3-Hydroxy-4-methoxybenzylidene)-2-phenyl-1H-benzo[d]imidazole-5-carbohydrazide] yielded an inhibition at 10 µM (786–0) of 16.6%, an inhibition at 10 µM (HCT-116) of 15% and an inhibition at 10 µM (IGROV1) of 22%. For the same compound, the inhibition at 10 µM (K-562) was 26.2%, the inhibition at 10 µM (M14) was 19.7% and the inhibition at 10 µM (MALME-3 M) was 78.4%. The inhibition at 10 µM (MDA-MB-435) was 30.4%, the inhibition at 10 µM (NCI-H226) was 11.4% and the inhibition at 10 µM (NCI/ADR-RES) was < 5%. For the same compound, the inhibition at 10 µM (OVCAR-3) was 7.25%, the inhibition at 10 µM (OVCAR-4) was < 5% and the inhibition at 10 µM (RPMI-8226) was 23.4%. The inhibition at 10 µM (RXF 393) was < 5%, the inhibition at 10 µM (SF-295) was 10.9% and the inhibition at 10 µM (SF-539) was 32.2%. It also gave an inhibition at 10 µM (SK-MEL-28) of 28.9%, an inhibition at 10 µM (SK-MEL-5) of 39.5% and an inhibition at 10 µM (SK-OV-3) of 56.3%. For the same compound, the inhibition at 10 µM (SW-620) was < 5%, the inhibition at 10 µM (T-47D) was 39.3% and the inhibition at 10 µM (TK-10) was < 5%. For the same compound, the inhibition at 10 µM (UACC-62) was 18.7% and the inhibition at 10 µM (UO-31) was 38.2%.
